Experimental findings from US5952504A, “4-amino-3-acylnaphthyridine derivatives” (Yungjin Pharmaceutical Company, Ltd., priority 1995, dated 1999) are described below.

One may read the pIC50 as the negative decadic logarithm of the IC50, by convention in mol/L. Read a low pIC50 as a high IC50. A word on the ED50: it is the midpoint of the dose-response relation. What is called LD50 is the dose at which mortality reaches 50%. Read a high LD50 as lower toxicity.

pIC50: −log10 of the molar value. Read-outs that look alike come from different tables or passages of the source.

Series [1] addresses T1, H^+ /K^+ ATPase (Oryctolagus cuniculus, UniProt P27112).
T1 construct: from tissue; host or cells: rabbit gastric mucosa, membrane vesicles (differential and Ficoll density gradient centrifugation)
In words: Inhibition of H^+ /K^+ ATPase (rabbit gastric mucosa vesicles). Type of series: biochemical. On the procedure:
1. Inhibition of H^+ /K^+ ATPase Inhibition of H^+ /K^+ ATPase, a proton carrying enzyme, was measured by following the procedure of Saccomani et al. [Biochim. Biophy. Acta., 465, 311-330 (1977)]. Thus, a homogenate of the gastric mucose membrane of rabbit was used to prepare vesicles containing H^+ /K^+ ATPase by employing differential centrifugation and discontinuous density gradient centrifugation in Ficoll. […] Omeprazole was used as a control. A solution containing 2 mM of magnesium chloride, 40 mM of imidazole buffer (pH 7.4), 10 mM of potassium chloride and […] of ATP was added to the mixture. The resulting mixture was incubated at 37° C. for 15 minutes and the reaction was terminated by adding 1 ml of ice-cold 22% solution of trichloroacetic acid. Enzyme activity was calculated by measuring the separated inorganic phosphate by following the method of Fiske and Subbarow [J. Biol. Chem., 66, 375-440 (1925)].

Series [2] concerns gastric secretion. In words: Inhibition of gastric secretion (Shay ligation). The series is classed as in vivo, male Sprague-Dawley rats. As to conditions: 4 hours, pylorus-ligated rats; for ED50: Rattus norvegicus, into duodenum, read-out: Gastric juice Secretion Inhibition (ED50); for Gastric juice Secretion Inhibition (% at 12.5 mg/kg): 12.5 mg/kg into duodenum. As to the method:
2. Inhibition of Gastric Secretion
Inhibition of gastric secretion was measured by following the procedure of Shay ligation (Gastroenterology, 1954, 26, 903). Thus, male Sprague-Dawleyrats weighing 180-200 g were starved for 24 hours and their pylorus were ligated. Then, the inventive compounds shown in Table 2 or omeprazole as a positive control was administered into duodenum. Four hours later, the stomach was removed, and the acidity and amount of gastric juice were measured. By comparing the measured values with the acidity and amount of the gastric juice of the stomach of the reference group to which no test compound was administered, the inhibition of gastric secretion was calculated.

For series [3], the system named is ethanol-induced lesions. The series is described as follows: Inhibition of ethanol-induced lesions. Type of series: in vivo, male Sprague-Dawley rats. As to conditions: Rattus norvegicus; oral, 30 min before absolute ethanol (5 ml/kg); read-out: Anti-ulcer activity (ED50), Ethanol. As to the method: 1) Inhibition of ethanol-induced lesions Inhibitory activity of the inventive compound on the ethanol-induced lesions was measured by using male Sprague-Dawley rats weighing 180-200 g. Thus, rats were starved for 24 hours, and the inventive compounds shown in Table 3 or omeprazole as a positive control was orally administered. Thirty minutes later, absolute ethanol (5 ml/kg) was orally administered. 1.5 hours later, the stomach was removed, and the degree of the wound of the stomach was measured.

Series [4] has as its system ICR mice. The series is described as follows: Acute toxicity (oral, 14 days). Type of series: in vivo. The note with it: 6 animals. As to the method:
(§1) A median lethal dose (LD50) an index of acute toxicity was measured and is Table 4

The nature of series [5]: Acute toxicity (oral, 14 days). Type of series: in vivo. The note with it: mouse, in vivo, po; for mortality at 336 h: read-out: Lethality (%); for LD50 at 336 h: 14 days. As to the method: as §1
In series [6] the test system is stress-induced ulcer. The series is described as follows: Inhibition of stress-induced ulcer. The note with it: Rattus norvegicus; oral, water immersion stress; read-out: Anti-ulcer activity (ED50), Stress. Type of series: in vivo, male Sprague-Dawley rats. As to the method:
4) Inhibition of stress-induced ulcer Inhibitory activity of the inventive compound on the stress-induced ulcer was evaluated by using male Spraque-Dawley rats. Thus, rats were starved for 24 hours prior to carrying out the experiment. Stress is an important factor for causing gastric ulcer, and was applied to rats by immersing them in water. Then, the inventive compounds shown in Table 3 or omeprazole as a control was orally administered, and the inhibitions of ulcer by the action of the test compounds were observed.

In series [7] the test system is indomethacin-induced lesions. In words: Inhibition of indomethacin-induced lesions. Type of series: in vivo, male Sprague-Dawley rats. The note with it: Rattus norvegicus; oral, before indomethacin 35 mg/kg s.c.; read-out: Anti-ulcer activity (ED50), Indomethacin. On the procedure:
3) Inhibition of indomethacin-induced lesions Inhibitory activities of the inventive compounds on the indomethacin-induced lesions were measured by using male Sprague-Dawley rats. Thus, rats were starved for 48 hours and prohibited from being supplied with water for 2 hours, and 35 mg/kg of indomethacin (Sigma Co.) as a causative of gastric lesions was subcutaneously administered. Before indomethacin treatment, the inventive compounds shown in Table 3 or omeprazole as a positive control was orally administered, and the inhibitions of lesions by the action of the test compounds were observed.

In series [8] the test system is mepirizole-induced ulcer. The series is described as follows: Inhibition of mepirizole-induced ulcer. As to conditions: Rattus norvegicus; oral, 30 min before mepirizole (250 mg/kg); duodenum; read-out: Anti-ulcer activity (ED50), Mepirizole. The series is classed as in vivo, male Sprague-Dawley rats. On the procedure:
2) Inhibition of mepirizole-induced ulcer Inhibitory activity of the inventive compound on the mepirizole-induced ulcer was measured by using male Spraque-Dawley rats weighing 200-230 g. Thus, rats were not starved, and the inventive compounds shown in Table 3 or omeprazole as a positive control was orally administered. Thirty minutes later, mepirizole suspended in 1% CMC (250 mg/kg) was orally administered. […], the duodena were removed. The degree of the ulcer thereof was measured.

In series [9] the test system is acetic acid-induced ulcer. In words: Inhibition of acetic acid-induced ulcer. The series is classed as in vivo, male Sprague-Dawley rats. As to conditions: oral, 10 days. As to the method: 5) Inhibition of acetic acid-induced ulcer Inhibitory activity of the inventive compound on the acetic acid-induced ulcer was evaluated by using male Sprague-Dawley rats. Thus, rats were starved for 5 hours prior to carrying out the experiment. 20 Microliter of 30% acetic acid was injected into the submucosal layer of the stomach using a microsyringe to induce a circular ulcer on the stomach. […] The percentages of the healing of the ulcer were calculated by comparing them with that of reference group.

Setting [10] is: preincubation 30 min, 37° C., pH 7.4.

T1 sequence (P27112 2-1035 limits assumed): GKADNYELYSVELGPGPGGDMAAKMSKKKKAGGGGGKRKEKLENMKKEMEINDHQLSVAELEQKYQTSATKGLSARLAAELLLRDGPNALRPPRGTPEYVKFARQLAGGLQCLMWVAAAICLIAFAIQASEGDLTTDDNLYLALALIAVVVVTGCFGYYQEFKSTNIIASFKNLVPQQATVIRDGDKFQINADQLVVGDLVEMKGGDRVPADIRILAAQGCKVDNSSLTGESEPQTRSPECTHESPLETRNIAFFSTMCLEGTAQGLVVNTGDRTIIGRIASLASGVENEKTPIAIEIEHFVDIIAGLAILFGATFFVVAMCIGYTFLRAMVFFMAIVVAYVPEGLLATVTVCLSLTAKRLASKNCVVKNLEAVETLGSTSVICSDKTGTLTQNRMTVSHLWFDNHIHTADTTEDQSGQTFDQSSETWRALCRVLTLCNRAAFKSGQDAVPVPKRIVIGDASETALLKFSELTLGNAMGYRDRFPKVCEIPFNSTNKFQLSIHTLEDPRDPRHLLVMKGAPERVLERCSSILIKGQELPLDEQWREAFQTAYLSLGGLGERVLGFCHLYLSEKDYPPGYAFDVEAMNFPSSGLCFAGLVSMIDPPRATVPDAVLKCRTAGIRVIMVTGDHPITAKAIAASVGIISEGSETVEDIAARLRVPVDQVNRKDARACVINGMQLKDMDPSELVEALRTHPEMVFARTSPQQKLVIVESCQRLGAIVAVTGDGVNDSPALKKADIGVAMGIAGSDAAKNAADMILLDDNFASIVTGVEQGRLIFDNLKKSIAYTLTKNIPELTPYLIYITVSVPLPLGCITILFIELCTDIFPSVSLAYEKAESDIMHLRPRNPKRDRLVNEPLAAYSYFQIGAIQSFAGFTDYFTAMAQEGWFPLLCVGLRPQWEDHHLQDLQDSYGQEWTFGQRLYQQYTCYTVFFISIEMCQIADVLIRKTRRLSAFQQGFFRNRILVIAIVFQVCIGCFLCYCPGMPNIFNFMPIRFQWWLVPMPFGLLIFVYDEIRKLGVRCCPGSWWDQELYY
T1 sequence (P18597 whole entry partner): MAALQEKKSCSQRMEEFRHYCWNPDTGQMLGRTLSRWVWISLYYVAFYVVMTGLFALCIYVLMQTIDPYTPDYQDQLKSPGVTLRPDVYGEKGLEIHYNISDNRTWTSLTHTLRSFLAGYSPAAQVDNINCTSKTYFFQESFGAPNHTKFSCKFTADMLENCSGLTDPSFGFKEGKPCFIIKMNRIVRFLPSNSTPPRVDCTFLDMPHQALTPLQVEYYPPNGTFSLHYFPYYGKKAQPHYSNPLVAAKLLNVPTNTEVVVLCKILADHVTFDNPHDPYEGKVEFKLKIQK

The molecule `CCCC(=O)c1cnc2c(OCC)nccc2c1N[C@H](C)c1ccccc1` [Example 37] gave a pIC50 in series [1] (setting [10]) of 4.55. Besides, the ED50 in series [2] is 13.3 mg/kg.

As to `CCOC(=O)c1cnc2c(N3CCOCC3)nccc2c1Nc1ccccc1OC` [Example 49], the “Gastric juice Secretion Inhibition (% at 12.5 mg/kg)” value in series [2] is given as 35.8%.

As for `CCCC(=O)c1cnc2c(OC)nccc2c1Nc1ccc2c(c1)CCC2` [Example 31], the pIC50 in [1] (setting [10]) was 4.83.

In the case of `CCCC(=O)c1cnc2c(OC)nccc2c1N[C@H](C)c1ccccc1` [Example 21], the ED50 is 11.2 mg/kg in series [3]; 13 mg/kg in [6]; 2.1 mg/kg in [7]; 11.7 mg/kg in series [2]; 64.1 mg/kg in series [8]. Besides, in [1] (setting [10]), the pIC50 is 4.34. The “No. of Death” value in series [4] (female, 40 mg/kg oral) is listed as 0; in series [4] (female, 200 mg/kg oral), 0; in series [4] (female, 1000 mg/kg oral), 1; in [4] (female, 5000 mg/kg oral) it was 6; in series [4] (male, 40 mg/kg oral), 0; in [4] (male, 200 mg/kg oral), 0. Besides, the “No. of Death” value in series [4] (male, 1000 mg/kg oral) is 0; in series [4] (male, 5000 mg/kg oral), 6. For the same molecule, the mortality at 336 h was 0% in [5] (40 mg/kg, female, 40 mg/kg oral); 0% in [5] (40 mg/kg, male, 40 mg/kg oral); 0% in [5] (200 mg/kg, female, 200 mg/kg oral); 0% in series [5] (200 mg/kg, male, 200 mg/kg oral); 17% in [5] (1000 mg/kg, female, 1000 mg/kg oral); 0% in series [5] (1000 mg/kg, male, 1000 mg/kg oral). For the same molecule, the mortality at 336 h turned out to be 100% in series [5] (5000 mg/kg, female, 5000 mg/kg oral) and 100% in series [5] (5000 mg/kg, male, 5000 mg/kg oral). Further, the LD50 at 336 h in series [5] (female) worked out at 1130 mg/kg; in series [5] (male), 2340 mg/kg. Besides, the “Acetic acid: Percentage of healing in 30 mg/kg” value in [9] is 22.0%.

`CCCC(=O)c1cnc2c(OC(C)C)nccc2c1Nc1ccccc1C` [Example 43, 3-Butyryl-8-isopropoxy-4-(2-methylphenylamino)-1,7-naphthyridine]: in series [1] (setting [10]), the negative logarithm of the IC50 (pIC50) was 4.74.

Molecule `CCCCc1ccc(Nc2c(C(=O)CCC)cnc3c(OCC)nccc23)cc1` [Example 35] showed a pIC50 in [1] (setting [10]) of 4.69.

In [1] (setting [10]), `CCCCc1ccc(Nc2c(C(=O)OCC)cnc3c(OC)nccc23)cc1` [Example 13] showed a pIC50 of 4.60. Further, the “Gastric juice Secretion Inhibition (% at 12.5 mg/kg)” value in series [2] came out at 42.1%.

`CCCC(=O)c1cnc2c(OC)nccc2c1NC1CCCc2ccccc21` (stereo not drawn) [Example 32] had a pIC50 in series [1] (setting [10]) of 4.12.

Molecule `CCCC(=O)c1cnc2c(OC(C)C)nccc2c1Nc1ccccc1C(F)(F)F` [Example 45] showed a negative-log IC50 (pIC50) in [1] (setting [10]) of 4.41.

In turn, `CCCC(=O)c1cnc2c(OC)nccc2c1NCCCCc1ccccc1` [Example 29] showed a pIC50 in series [1] (setting [10]) of 4.57.

In series [1] (setting [10]), `CCCC(=O)c1cnc2c(OCC)nccc2c1NC1CCCc2ccccc21` (stereo not drawn) [Example 42] gave a pIC50 of 4.83.

For `COc1ccc2[nH]c([S+]([O-])Cc3ncc(C)c(OC)c3C)nc2c1` (stereo not drawn) [Omeprazole, reference compound], the ED50 in series [3] was 17.5 mg/kg; in series [6], 4.4 mg/kg; in [7], 1.2 mg/kg; in series [8], 2.8 mg/kg. This molecule showed a pIC50 in series [1] (control) of 4.24. For the same molecule, the “Acetic acid: Percentage of healing in 30 mg/kg” value in [9] was 27.1%.

As for `CCOC(=O)c1cnc2c(N3CCOCC3)nccc2c1Nc1cccc(C(F)(F)F)c1` [Example 55], the pIC50 in series [1] (setting [10]) was 4.77.

For the molecule `CCOC(=O)c1cnc2c(OC)nccc2c1N[C@@H](C)c1ccccc1` [Example 15], the results for the ED50 in [3], in series [7] and in series [2] were 12.8 mg/kg, 2.1 mg/kg and 30 mg/kg, respectively.

Molecule `CCCC(=O)c1cnc2c(OC(C)C)nccc2c1Nc1ccccc1SC` [Example 44] showed a pIC50 in series [1] (setting [10]) of 4.94.

In the case of `CCCC(=O)c1cnc2c(OCC)nccc2c1NCCCCc1ccccc1` [Example 41], the pIC50 in series [1] (setting [10]) is 4.90.

`CCOC(=O)c1cnc2c(OC)nccc2c1Nc1ccc(F)cc1` [Example 11] showed a pIC50 in series [1] (setting [10]) of 4.50.

Consider `CCCC(=O)c1cnc2c(OCC)nccc2c1Nc1ccccc1SC` [Example 34], for which the ED50 in series [3] stood at 30.6 mg/kg; in [7], 4.9 mg/kg; in series [2], 30 mg/kg. In [1] (setting [10]), this molecule had a negative-log IC50 (pIC50) of 4.63.
